From ChEMBL document CHEMBL5120871, “Identification of benzamides derivatives of norfloxacin as promising microRNA-21 inhibitors via repressing its transcription” (Bioorg Med Chem, 2022)
Active and inactive are the calls of the source. The rule behind the calls is not given here.

Assays:
microRNA 21 [1] = assay: Inhibition of wild type full length miR-21 in human HeLa cells co-expressing firefly luciferase and renilla luciferase gene assessed as fold change in Luc/Rlu by measuring relative […] intensity at 20 uM by Dual-Luciferase reporter based luminometer analysis; type: cell-based
microRNA 21 [2] = assay: Inhibition of miR-21 maturation in human MCF7 cells assessed as reduction in pre-miR-21 expression at 5 uM incubated for 48 hrs by RT-PCR analysis relative to control; type: cell-based
microRNA 21 [3] = assay: Inhibition of miR-21 in human HeLa cells assessed as increase in luciferase activity measured after 48 hrs by bright Glo-luciferase reporter gene assay; type: cell-based
HeLa [4] = assay: Antiproliferative activity against human HeLa cells incubated for 24 hrs by CCK-8 assay; type: functional, cell-based
HCT-116 [5] = assay: Antiproliferative activity against human HCT-116 cells incubated for 24 hrs by CCK-8 assay; type: functional, cell-based; details: HCT-116, 24 h
microRNA 21 [6] = assay: Inhibition of miR-21 (unknown origin) maturation assessed as cleavage of pre-miR-21 at 5 uM by RT-qPCR analysis relative to control; type: nucleic-acid assay; details: Homo sapiens
microRNA 21 [7] = assay: Inhibition of wild type full length miR-21 in human HeLa cells co-expressing firefly luciferase and renilla luciferase gene assessed as fold change in Luc/Rlu by measuring relative […] intensity at 10 uM by Dual-Luciferase reporter based luminometer analysis; type: cell-based
HeLa [8] = assay: Inhibition of colony formation in human HeLa cells incubated for 14 days by crystal violet staining based assay; type: functional, cell-based; details: dose 0.1-10 µM, time 14.0 day, DDE = dose-dependent effect
HCT-116 [9] = assay: Inhibition of colony formation in human HCT-116 cells incubated for 14 days by crystal violet staining based assay; type: functional, cell-based; details: dose 0.1-10 µM, time 14.0 day, DDE = dose-dependent effect
HeLa [10] = assay: Induction of apoptosis in human HeLa cells assessed as viable cells at 10 uM incubated for 24 hrs by annexin V-FITC and propidium iodide staining based flow cytometry (reference value: 93.54%); type: functional; details: read-out: Activity
HeLa [11] = assay: Induction of apoptosis in human HeLa cells assessed as viable cells at 20 uM incubated for 24 hrs by annexin V-FITC and propidium iodide staining based flow cytometry (reference value: 93.54%); type: functional; details: read-out: Activity
HeLa [12] = assay: Induction of apoptosis in human HeLa cells assessed as early apoptotic cells at 10 uM incubated for 24 hrs by annexin V-FITC and propidium iodide staining based flow cytometry (reference value: 4.35%); type: functional
HeLa [13] = assay: Induction of apoptosis in human HeLa cells assessed as early apoptotic cells at 20 uM incubated for 24 hrs by annexin V-FITC and propidium iodide staining based flow cytometry (reference value: 4.35%); type: functional
HeLa [14] = assay: Induction of apoptosis in human HeLa cells assessed as late apoptotic cells at 10 uM incubated for 24 hrs by annexin V-FITC and propidium iodide staining based flow cytometry (reference value: 2.03%); type: functional
HeLa [15] = assay: Induction of apoptosis in human HeLa cells assessed as late apoptotic cells at 20 uM incubated for 24 hrs by annexin V-FITC and propidium iodide staining based flow cytometry (reference value: 2.03%); type: functional
HeLa [16] = assay: Induction of apoptosis in human HeLa cells assessed as necrotic cells at 10 uM incubated for 24 hrs by annexin V-FITC and propidium iodide staining based flow cytometry (reference value: 0.08%); type: functional
HeLa [17] = assay: Induction of apoptosis in human HeLa cells assessed as necrotic cells at 20 uM incubated for 24 hrs by annexin V-FITC and propidium iodide staining based flow cytometry (reference value: 0.08%); type: functional
HeLa [18] = assay: Inhibition of cell migration in human HeLa cells at 10 to 20 uM and measured after 24 hrs by crystal violet staining based transwell migration assay; type: functional; details: dose 10-20 µM
microRNA 21 [19] = assay: Inhibition of miR-21 in human HeLa cells assessed as reduction in mature miR-21 level at 10 to 20 uM measured after 24 hrs by RT-qPCR analysis; type: cell-based; details: dose 10-20 µM
microRNA 21 [20] = assay: Inhibition of miR-21 in human HeLa cells assessed as reduction in mature miR-21 level at 10 to 20 uM measured after 48 hrs by RT-qPCR analysis relative to control; type: cell-based; details: dose 10-20 µM
microRNA 21 [21] = assay: Inhibition of miR-21 in human HeLa cells assessed as downregulation of pri-miR-21 level at 10 uM and measured for 24 to 48 hrs by RT-qPCR analysis; type: cell-based; details: time 24-48 hrs
microRNA 21 [22] = assay: Inhibition of miR-21 in human HeLa cells assessed as downregulation of pre-miR-21 level at 10 uM and measured for 24 to 48 hrs by RT-qPCR analysis; type: cell-based; details: time 24-48 hrs
microRNA 21 [23] = assay: Inhibition of miR-21 in human HeLa cells assessed as upregulation of EGR1 level at 10 uM incubated for 48 hrs by RT-qPCR analysis; type: cell-based
microRNA 21 [24] = assay: Inhibition of miR-21 in human HeLa cells assessed as upregulation of SLIT2 level at 10 uM incubated for 48 hrs by RT-qPCR analysis; type: cell-based
microRNA 21 [25] = assay: Inhibition of miR-21 in human HeLa cells assessed as downregulation of ATF4 level at 10 uM incubated for 48 hrs by RT-qPCR analysis; type: cell-based
microRNA 21 [26] = assay: Inhibition of miR-21 in human HeLa cells assessed as downregulation of ZNF251 level at 10 uM incubated for 48 hrs by RT-qPCR analysis; type: cell-based
microRNA 21 [27] = assay: Inhibition of miR-21 in human HeLa cells assessed as increase in PTEN level at 10 to 20 uM incubated for 48 hrs by RT-qPCR analysis; type: cell-based; details: dose 10-20 µM
[28] = Cytotoxicity against human BEAS-2B cells assessed as reduction in cell proliferation incubated for 24 hrs by CCK-8 assay; type: toxicity, cell-based
microRNA 21 [29] = assay: Inhibition of miR-21 maturation in human U87 cells assessed as reduction in pre-miR-21 expression at 30 uM measured upto 24 hrs by RT-PCR analysis relative to control; type: cell-based
microRNA 21 [30] = assay: Inhibition of miR-21 maturation in human LN-229 cells assessed as reduction in pre-miR-21 expression at 30 uM measured upto 24 hrs by RT-PCR analysis relative to control; type: cell-based
microRNA 21 [31] = assay: Inhibition of miR-21 maturation in human MCF7 cells assessed as reduction in pre-miR-21 expression at 30 uM measured upto 24 hrs by RT-PCR analysis relative to control; type: cell-based
microRNA 21 [32] = assay: Inhibition of miR-21 maturation in human SGC-7901 cells assessed as reduction in pre-miR-21 expression at 30 uM measured upto 24 hrs by RT-PCR analysis relative to control; type: cell-based

CCn1cc(C(=O)Nc2ccccc2)c(=O)c2cc(F)c(N3CCN(Cc4ccccc4)CC3)cc21
fold change (FC) (microRNA 21 [1]): 1.24

CCn1cc(C(=O)O)c(=O)c2cc(F)c(N3CCNCC3)cc21
fold change (FC) (microRNA 21 [1]): 1.08

CN[C@@H]1[C@H](O[C@H]2[C@H](O[C@H]3[C@H](O)[C@@H](O)[C@H](N=C(N)N)[C@@H](O)[C@@H]3N=C(N)N)O[C@@H](C)[C@]2(O)C=O)O[C@@H](CO)[C@H](O)[C@H]1O
fold change (FC) (microRNA 21 [1]): 1.1 | inhibition (microRNA 21 [2]): 80%

CCn1cc(C(=O)N2CCCCC2)c(=O)c2cc(F)c(N3CCN(Cc4ccccc4)CC3)cc21
fold change (FC) (microRNA 21 [1]): 1.12

C#CCNC(=O)c1ccc(/N=N/c2ccccc2)cc1
fold change (FC) (microRNA 21 [1]): 1.41 | EC50 (microRNA 21 [3]): 2 µM

CCn1cc(C(=O)Nc2ccc(C(=O)NC3CCOCC3)cc2)c(=O)c2cc(F)c(N3CCNCC3)cc21
fold change (FC) (microRNA 21 [1]): 0.69

CCn1cc(C(=O)NC2CCN(Cc3ccccc3)CC2)c(=O)c2cc(F)c(N3CCNCC3)cc21
fold change (FC) (microRNA 21 [1]): 1.09

C#CCNC(=O)c1ccc(NC(=O)c2cn(CC)c3cc(N4CCN(C(=O)CC56CC7CC(CC(C7)C5)C6)CC4)c(F)cc3c2=O)cc1
fold change (FC) (microRNA 21 [1]): 0.98

CCN(CC)CCNC(=O)c1ccc(NC(=O)c2cn(CC)c3cc(N4CCNCC4)c(F)cc3c2=O)cc1
fold change (FC) (microRNA 21 [1]): 1.36

C#CCNC(=O)c1ccc(NC(=O)c2ccccc2Br)cc1
fold change (FC) (microRNA 21 [1]): 1.64

CCCCNC(=O)c1ccc(NC(=O)c2cn(CC)c3cc(N4CCNCC4)c(F)cc3c2=O)cc1
fold change (FC) (microRNA 21 [1]): 0.98

CC[C@@]1(O)C(=O)OCc2c1cc1n(c2=O)Cc2cc3cc(O)ccc3nc2-1 [HYDROXYCAMPTOTHECIN]
IC50 (HeLa [4]): 0.06 µM | IC50 (HCT-116 [5]): 0.05 µM

CCn1cc(C(=O)Nc2ccc(C(=O)NCC(C)C)cc2)c(=O)c2cc(F)c(N3CCNCC3)cc21
fold change (FC) (microRNA 21 [1]): 1.92 | IC50 (HeLa [4]): 13.2 µM

C#CCNC(=O)c1ccc(NC(=O)c2cn(CC)c3cc(N4CCN(CC5CC5)CC4)c(F)cc3c2=O)cc1
fold change (FC) (microRNA 21 [1]): 1.07

CCn1cc(C(=O)Nc2ccc(F)cc2)c(=O)c2cc(F)c(N3CCN(Cc4ccccc4)CC3)cc21
fold change (FC) (microRNA 21 [1]): 1.63 | IC50 (HeLa [4]): > 100 µM | IC50 (HCT-116 [5]): > 100 µM

CCn1cc(C(=O)Nc2ccc(C(=O)NC(C)C)cc2)c(=O)c2cc(F)c(N3CCNCC3)cc21
fold change (FC) (microRNA 21 [1]): 1.8 | IC50 (HeLa [4]): > 100 µM

NC[C@H]1O[C@H](O[C@H]2[C@H](O[C@@H]3O[C@H](CSCCNC(=O)CCCCCn4cc(COCCOc5ccc6c(c5)C(=O)N(O)C(=O)C6)nn4)[C@@H](O[C@H]4O[C@H](CN)[C@@H](O)[C@H](O)[C@H]4N)[C@H]3O)[C@@H](O)[C@H](N)C[C@@H]2N)[C@H](N)[C@@H](O)[C@@H]1O
inhibition (microRNA 21 [6]): 90%

C#CCNC(=O)c1cn(CC)c2cc(N3CCN(Cc4ccccc4)CC3)c(F)cc2c1=O
fold change (FC) (microRNA 21 [1]): 1

C#CCNC(=O)c1ccc(NC(=O)c2cn(CC)c3cc(N4CCNCC4)c(F)cc3c2=O)cc1
fold change (FC) (microRNA 21 [1]): 1.15

CCn1cc(C(=O)NCCN2CCOCC2)c(=O)c2cc(F)c(N3CCNCC3)cc21
fold change (FC) (microRNA 21 [1]): 0.57

CCn1cc(C(=O)Nc2ccc(C(=O)NCC3CC3)cc2)c(=O)c2cc(F)c(N3CCNCC3)cc21
fold change (FC) (microRNA 21 [1]): 0.72

CCn1cc(C(=O)NCCN2CCCCC2)c(=O)c2cc(F)c(N3CCNCC3)cc21
fold change (FC) (microRNA 21 [1]): 0.91

C#CCNC(=O)c1ccc(NC(=O)c2cn(CC)c3cc(N4CCN(Cc5ccccc5)CC4)c(F)cc3c2=O)cc1
fold change (FC) (microRNA 21 [1]): 1.47

CCn1cc(C(=O)Nc2ccc(C(=O)NCCN3CCCCC3)cc2)c(=O)c2cc(F)c(N3CCNCC3)cc21
fold change (FC) (microRNA 21 [7]): 1.42 | fold change (FC) (microRNA 21 [1]): 2.01 | IC50 (HeLa [4]): 5.5 µM | IC50 (HCT-116 [5]): 2.8 µM | inhibition (HeLa [8]): Dde | inhibition (HCT-116 [9]): Dde | viability at 10 µM (HeLa [10]): 91.8% | viability at 20 µM (HeLa [11]): 84.6% | Activity (HeLa [12]): 5.74% | Activity (HeLa [13]): 10.67% | Activity (HeLa [14]): 2.23% | Activity (HeLa [15]): 4.18% | Activity (HeLa [16]): 0.24% | Activity (HeLa [17]): 0.58% | Activity (HeLa [18]): Active | inhibition (microRNA 21 [19]): Active | inhibition (microRNA 21 [20]): Active | inhibition (microRNA 21 [21]): Active | inhibition (microRNA 21 [22]): Active | inhibition (microRNA 21 [23]): Active | inhibition (microRNA 21 [24]): Active | inhibition (microRNA 21 [25]): Active | inhibition (microRNA 21 [26]): Active | inhibition (microRNA 21 [27]): Active | IC50 at 24 h [28]: > 100 µM

N#CC1CNC(N)NC1N (centres undefined)
inhibition (microRNA 21 [29]): 50% | inhibition (microRNA 21 [30]): 50% | inhibition (microRNA 21 [31]): 50% | inhibition (microRNA 21 [32]): 50%
